{"source": "ChEMBL document CHEMBL3272062", "about": "“Difference in antimalarial activity between certain amino alcohol diastereomers” (J Med Chem, 1976)", "key": {"[1]": {"test_system": "Mus musculus", "assay": "Toxicity in sc dosed mouse measured 2 to 5 days post-infection", "type": "organism-based", "conditions": "in vivo"}, "[2]": {"test_system": "Plasmodium berghei", "assay": "Antimalarial activity against Plasmodium berghei infected in sc dosed mouse assessed as increase in mean survival time", "type": "functional, organism-based"}, "[3]": {"test_system": "Plasmodium berghei", "assay": "Antimalarial activity against Plasmodium berghei infected in mouse assessed as cure rate at 640 mg/kg, sc measured on day 60 post-infection", "type": "functional, organism-based", "parameters": "dose 640 mg/kg"}, "[4]": {"test_system": "Plasmodium berghei", "assay": "Antimalarial activity against Plasmodium berghei infected in mouse assessed as increase in mean survival time at 40 mg/kg, sc", "type": "functional", "conditions": "route subcutaneous"}, "[5]": {"test_system": "Plasmodium berghei", "assay": "Antimalarial activity against Plasmodium berghei infected in mouse assessed as increase in mean survival time at 80 mg/kg, sc", "type": "functional", "conditions": "route subcutaneous"}, "[6]": {"test_system": "Plasmodium berghei", "assay": "Antimalarial activity against Plasmodium berghei infected in mouse assessed as increase in mean survival time at 160 mg/kg, sc", "type": "functional", "conditions": "route subcutaneous"}, "[7]": {"test_system": "Plasmodium berghei", "assay": "Antimalarial activity against Plasmodium berghei infected in mouse assessed as increase in mean survival time at 320 mg/kg, sc", "type": "functional", "conditions": "route subcutaneous"}}, "note": "Active and inactive are the calls of the source. The rule behind the calls is not given here.", "data": [{"smiles": "CN1CCCCC1C(O)c1cc2ccccc2c2cc(Br)ccc12.Cl", "note": "(stereo not drawn)", "values": [{"measurement": "Activity", "setting": "[1]", "result": "Toxic"}, {"measurement": "Activity", "setting": "[2]", "result": "Active"}]}, {"smiles": "OC(c1cc(C(F)(F)F)nc2c(C(F)(F)F)cccc12)C1CCCNC1", "note": "(single isomer, unassigned; diastereomer 1)", "values": [{"measurement": "Activity", "setting": "[3]", "result": "Active"}]}, {"smiles": "OC(c1cc(C(F)(F)F)nc2c(C(F)(F)F)cccc12)C1CCCNC1", "note": "(single isomer, unassigned; diastereomer 2)", "values": [{"measurement": "Activity", "setting": "[3]", "result": "inactive"}]}, {"smiles": "O=C(O)/C=C/C(=O)O.OC(c1cc(C(F)(F)F)nc2c(C(F)(F)F)cccc12)C1CCCNC1", "note": "(single isomer, unassigned; diastereomer 1)", "values": [{"measurement": "MST", "setting": "[4]", "result": 5.9, "unit": "days"}, {"measurement": "MST", "setting": "[5]", "result": 10.1, "unit": "days"}, {"measurement": "MST", "setting": "[6]", "result": 11.2, "unit": "days"}, {"measurement": "MST", "setting": "[7]", "result": 15.2, "unit": "days"}]}]}
